Several values for one entry are separate records, joined by “and”; a condition that tells them apart may be missing. Equal values may be shown once. Read-outs that look alike come from different tables or passages of the source.
Experiments:
Melatonin, nonselective = experiment: in vitro selectivity profile; type: binding; conditions: eslicarbazepine 400 μmol/L
[1] = test system: GABA, chloride, TBOB site; experiment: in vitro selectivity profile; type: binding; conditions: eslicarbazepine 400 μmol/L
Serotonin, 5HT7 (h) = Serotonin, 5HT7 (h) (Homo sapiens, UniProt P34969); experiment: in vitro selectivity profile; type: binding
Calcium channel, type N = experiment: in vitro selectivity profile; type: binding; conditions: eslicarbazepine 400 μmol/L
[2] = test system: Inositol triphosphate, IP3; experiment: in vitro selectivity profile; type: binding; conditions: eslicarbazepine 400 μmol/L
[3] = cited from earlier work
[4] = target: hKv7.2 potassium channels (Homo sapiens, UniProt O43526); experiment: whole-cell patch clamp, hKv7.2 in CHO cells; type: cell-based; conditions: depolarizing pulse +20 mV from holding potential −80 mV
[5] = target: human α5β2γ2 GABAA receptors (Homo sapiens, UniProt P18507+P31644+P47870); experiment: submaximal GABA currents in Ltk cells; type: cell-based
transient Na+ channels = conditions: ref Döser et al. [2013c], [2015]; cited from earlier work
Serotonin, 5HT3 = experiment: in vitro selectivity profile; type: binding; conditions: eslicarbazepine 400 μmol/L
Opioid, kappa 1 = experiment: in vitro selectivity profile; type: binding; conditions: eslicarbazepine 400 μmol/L
Glutamate, mGluR5 = experiment: in vitro selectivity profile; type: binding; conditions: eslicarbazepine 400 μmol/L
Purinergic, P2Y = experiment: in vitro selectivity profile; type: binding; conditions: eslicarbazepine 400 μmol/L
Oxygenase, COX-2 = experiment: in vitro selectivity profile; type: biochemical; conditions: eslicarbazepine 400 μmol/L
Serotonin, 5HT1A (h) = Serotonin, 5HT1A (h) (Homo sapiens, UniProt P08908); experiment: in vitro selectivity profile; type: binding
Sigma 1 = experiment: in vitro selectivity profile; type: binding; conditions: eslicarbazepine 400 μmol/L
[6] = target: human Nav1.3 sodium channels (Homo sapiens, UniProt Q9NY46); experiment: whole-cell patch clamp, Nav1.3 in CHO-K1 cells; type: cell-based; conditions: 250 μmol/L
Muscarinic, M1 (h) = Muscarinic, M1 (h) (Homo sapiens, UniProt P11229); experiment: in vitro selectivity profile; type: binding
GABA A, agonist site = experiment: in vitro selectivity profile; type: binding; conditions: eslicarbazepine 400 μmol/L
Serotonin, 5HT6 (h) = Serotonin, 5HT6 (h) (Homo sapiens, UniProt P50406); experiment: in vitro selectivity profile; type: binding
Neuropeptide, NPY2 (h) = Neuropeptide, NPY2 (h) (Homo sapiens, UniProt P49146); experiment: in vitro selectivity profile; type: binding
[7] = target: Serotonin transporter (h) (Homo sapiens, UniProt P31645); experiment: in vitro selectivity profile; type: binding
Adenosine, A2A (h) = Adenosine, A2A (h) (Homo sapiens, UniProt P29274); experiment: in vitro selectivity profile; type: binding
Oxidase, MAO-A, central = experiment: in vitro selectivity profile; type: biochemical; conditions: eslicarbazepine 400 μmol/L
[8] = target: Kinase, protein, PKCz (h) (Homo sapiens, UniProt Q05513); experiment: in vitro selectivity profile; type: biochemical
[9] = target: Protease, caspase, CASP-2 (h) (Homo sapiens, UniProt P42575); experiment: in vitro selectivity profile; type: biochemical
[10] = target: Kinase, protein, GSK3b (h) (Homo sapiens, UniProt P49841); experiment: in vitro selectivity profile; type: biochemical
[11] = test system: Corticotropin-releasing factor, nonselective; experiment: in vitro selectivity profile; type: binding; conditions: eslicarbazepine 400 μmol/L
Sodium, site 2 = experiment: in vitro selectivity profile; type: binding; conditions: eslicarbazepine 400 μmol/L
Histamine, H3 = experiment: in vitro selectivity profile; type: binding; conditions: eslicarbazepine 400 μmol/L
Dopamine, D4.2 (h) = Dopamine, D4.2 (h) (Homo sapiens, UniProt P21917, DEL265-296); experiment: in vitro selectivity profile; type: binding
Dopamine, D4.4 (h) = Dopamine, D4.4 (h) (Homo sapiens, UniProt P21917); experiment: in vitro selectivity profile; type: binding
[12] = test system: Glutamate, chloride-dependent site; experiment: in vitro selectivity profile; type: binding; conditions: eslicarbazepine 400 μmol/L
[13] = test system: Glutamate, NMDA agonist site; experiment: in vitro selectivity profile; type: binding; conditions: eslicarbazepine 400 μmol/L
Serotonin, 5HT1D (h) = Serotonin, 5HT1D (h) (Homo sapiens, UniProt P28221); experiment: in vitro selectivity profile; type: binding
[14] = eslicarbazepine; ref Bialer and Soares-da-Silva [2012]; cited from earlier work
[15] = test system: persistent Na+ current (INaP); conditions: 300 μmol/L, ref Döser et al. [2013a], [2014], cited from earlier work
Serotonin, 5HT5A (h) = Serotonin, 5HT5A (h) (Homo sapiens, UniProt P47898); experiment: in vitro selectivity profile; type: binding
[16] = Amygdala kindling, ESL 200 mg/kg i.p., 15 min, ref Soerensen et al. ([2011])
[17] = Amygdala kindling, ESL 300 mg/kg i.p., 15 min, ref Soerensen et al. ([2011])
[18] = Corneal kindling, ESL 100 mg/kg i.p., 60 min, ref Pekcec et al. ([2011])
[19] = MES test, ESL 50 mg/kg p.o., 60 min, ref Pires et al. ([2011])

Sequence of human Nav1.3 sodium channels (Q9NY46 whole entry): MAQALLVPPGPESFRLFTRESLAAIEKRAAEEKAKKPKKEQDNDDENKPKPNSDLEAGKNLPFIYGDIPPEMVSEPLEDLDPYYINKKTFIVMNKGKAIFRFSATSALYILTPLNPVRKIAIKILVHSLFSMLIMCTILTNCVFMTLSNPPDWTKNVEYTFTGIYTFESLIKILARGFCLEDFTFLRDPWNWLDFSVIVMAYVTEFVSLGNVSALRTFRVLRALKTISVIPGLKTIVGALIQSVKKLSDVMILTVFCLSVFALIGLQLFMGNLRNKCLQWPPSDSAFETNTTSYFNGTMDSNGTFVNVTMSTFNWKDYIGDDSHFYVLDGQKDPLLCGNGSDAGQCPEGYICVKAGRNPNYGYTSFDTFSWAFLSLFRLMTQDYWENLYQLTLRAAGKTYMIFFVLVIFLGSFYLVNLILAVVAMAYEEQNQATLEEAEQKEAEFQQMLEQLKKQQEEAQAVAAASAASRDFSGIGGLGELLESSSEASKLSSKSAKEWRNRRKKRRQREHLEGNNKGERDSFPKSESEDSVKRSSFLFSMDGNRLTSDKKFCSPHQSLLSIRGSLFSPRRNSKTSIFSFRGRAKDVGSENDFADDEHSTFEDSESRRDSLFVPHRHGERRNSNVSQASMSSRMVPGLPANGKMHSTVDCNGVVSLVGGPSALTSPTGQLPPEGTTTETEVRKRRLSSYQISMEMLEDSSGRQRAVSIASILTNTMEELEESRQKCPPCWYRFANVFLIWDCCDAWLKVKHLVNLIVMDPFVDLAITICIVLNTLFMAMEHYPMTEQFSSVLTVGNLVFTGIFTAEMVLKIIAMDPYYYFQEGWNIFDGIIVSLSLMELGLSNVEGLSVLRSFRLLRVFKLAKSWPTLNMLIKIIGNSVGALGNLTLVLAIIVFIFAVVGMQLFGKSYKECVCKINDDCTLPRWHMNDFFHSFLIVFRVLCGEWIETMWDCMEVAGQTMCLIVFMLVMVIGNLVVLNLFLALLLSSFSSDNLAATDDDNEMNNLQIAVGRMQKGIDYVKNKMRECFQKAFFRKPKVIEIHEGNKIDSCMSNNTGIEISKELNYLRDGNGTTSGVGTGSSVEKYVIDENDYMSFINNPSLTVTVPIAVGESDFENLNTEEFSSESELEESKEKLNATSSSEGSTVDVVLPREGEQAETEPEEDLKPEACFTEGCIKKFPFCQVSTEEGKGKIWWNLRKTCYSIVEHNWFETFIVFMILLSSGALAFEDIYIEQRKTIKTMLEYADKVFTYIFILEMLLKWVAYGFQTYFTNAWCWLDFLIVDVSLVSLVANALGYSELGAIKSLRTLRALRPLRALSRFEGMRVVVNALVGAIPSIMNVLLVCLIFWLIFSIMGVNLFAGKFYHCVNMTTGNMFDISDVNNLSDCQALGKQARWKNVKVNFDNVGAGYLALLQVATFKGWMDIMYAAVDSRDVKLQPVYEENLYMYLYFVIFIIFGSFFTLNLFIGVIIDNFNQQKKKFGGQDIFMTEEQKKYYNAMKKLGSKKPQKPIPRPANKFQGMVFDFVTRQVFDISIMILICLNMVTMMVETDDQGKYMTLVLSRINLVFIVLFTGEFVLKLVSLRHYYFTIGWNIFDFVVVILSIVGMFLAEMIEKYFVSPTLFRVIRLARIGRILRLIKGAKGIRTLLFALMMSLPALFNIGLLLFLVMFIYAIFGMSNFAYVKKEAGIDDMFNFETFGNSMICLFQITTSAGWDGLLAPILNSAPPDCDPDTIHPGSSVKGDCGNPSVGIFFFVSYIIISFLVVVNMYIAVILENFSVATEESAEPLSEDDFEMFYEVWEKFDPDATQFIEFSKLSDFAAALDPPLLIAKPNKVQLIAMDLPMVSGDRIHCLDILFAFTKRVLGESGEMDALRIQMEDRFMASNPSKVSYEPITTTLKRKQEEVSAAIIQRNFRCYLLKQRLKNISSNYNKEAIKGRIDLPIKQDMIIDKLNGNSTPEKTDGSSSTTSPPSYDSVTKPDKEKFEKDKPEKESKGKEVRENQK
Sequence of human α5β2γ2 GABAA receptors (P31644 32-462): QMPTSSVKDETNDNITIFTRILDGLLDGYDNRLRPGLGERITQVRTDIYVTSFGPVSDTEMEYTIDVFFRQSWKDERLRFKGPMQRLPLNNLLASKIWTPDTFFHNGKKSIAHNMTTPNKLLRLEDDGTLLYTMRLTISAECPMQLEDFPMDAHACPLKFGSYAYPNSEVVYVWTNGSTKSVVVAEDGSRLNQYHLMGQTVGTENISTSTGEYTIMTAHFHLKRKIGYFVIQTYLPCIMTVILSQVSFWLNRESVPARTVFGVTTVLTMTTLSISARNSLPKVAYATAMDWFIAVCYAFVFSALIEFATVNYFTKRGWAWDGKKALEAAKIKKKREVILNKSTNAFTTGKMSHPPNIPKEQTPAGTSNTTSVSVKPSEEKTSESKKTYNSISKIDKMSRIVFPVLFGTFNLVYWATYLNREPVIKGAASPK
Sequence of human α5β2γ2 GABAA receptors (P47870 25-512 limits assumed): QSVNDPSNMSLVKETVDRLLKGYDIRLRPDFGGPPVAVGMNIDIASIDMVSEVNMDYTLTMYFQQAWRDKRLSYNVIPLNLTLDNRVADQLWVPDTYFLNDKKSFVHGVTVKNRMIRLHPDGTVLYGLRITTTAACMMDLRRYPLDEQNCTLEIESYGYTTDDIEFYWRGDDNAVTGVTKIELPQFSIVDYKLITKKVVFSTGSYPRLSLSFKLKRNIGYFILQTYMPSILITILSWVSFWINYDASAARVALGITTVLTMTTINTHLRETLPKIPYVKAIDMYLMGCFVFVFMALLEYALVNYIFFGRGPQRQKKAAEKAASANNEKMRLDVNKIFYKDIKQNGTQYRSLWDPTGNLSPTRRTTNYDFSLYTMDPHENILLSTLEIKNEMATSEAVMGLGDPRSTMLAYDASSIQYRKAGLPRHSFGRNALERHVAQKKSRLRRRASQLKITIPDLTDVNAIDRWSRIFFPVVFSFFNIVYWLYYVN
Sequence of human α5β2γ2 GABAA receptors (P18507 40-475): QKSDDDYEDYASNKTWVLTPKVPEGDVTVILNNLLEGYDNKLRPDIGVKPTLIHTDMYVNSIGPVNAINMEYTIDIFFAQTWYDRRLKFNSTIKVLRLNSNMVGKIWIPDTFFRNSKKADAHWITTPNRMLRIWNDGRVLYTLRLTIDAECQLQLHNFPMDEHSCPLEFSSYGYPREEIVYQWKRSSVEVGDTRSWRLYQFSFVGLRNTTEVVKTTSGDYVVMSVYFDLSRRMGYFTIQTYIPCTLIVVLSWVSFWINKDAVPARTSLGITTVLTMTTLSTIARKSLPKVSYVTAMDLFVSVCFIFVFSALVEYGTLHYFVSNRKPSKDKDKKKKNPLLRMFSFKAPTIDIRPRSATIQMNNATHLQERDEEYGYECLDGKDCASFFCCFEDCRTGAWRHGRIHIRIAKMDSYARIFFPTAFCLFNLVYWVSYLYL
Sequence of Serotonin, 5HT5A (h) (P47898 whole entry): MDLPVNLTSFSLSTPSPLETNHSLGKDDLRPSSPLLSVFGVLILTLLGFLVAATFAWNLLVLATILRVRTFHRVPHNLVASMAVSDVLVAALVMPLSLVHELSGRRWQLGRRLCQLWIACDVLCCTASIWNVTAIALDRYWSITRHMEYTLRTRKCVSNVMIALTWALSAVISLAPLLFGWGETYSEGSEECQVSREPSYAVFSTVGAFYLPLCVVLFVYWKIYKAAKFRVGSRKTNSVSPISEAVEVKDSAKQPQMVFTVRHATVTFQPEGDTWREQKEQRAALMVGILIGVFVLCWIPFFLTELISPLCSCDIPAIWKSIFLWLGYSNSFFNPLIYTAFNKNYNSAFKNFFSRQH
Sequence of Kinase, protein, PKCz (h) (Q05513 whole entry): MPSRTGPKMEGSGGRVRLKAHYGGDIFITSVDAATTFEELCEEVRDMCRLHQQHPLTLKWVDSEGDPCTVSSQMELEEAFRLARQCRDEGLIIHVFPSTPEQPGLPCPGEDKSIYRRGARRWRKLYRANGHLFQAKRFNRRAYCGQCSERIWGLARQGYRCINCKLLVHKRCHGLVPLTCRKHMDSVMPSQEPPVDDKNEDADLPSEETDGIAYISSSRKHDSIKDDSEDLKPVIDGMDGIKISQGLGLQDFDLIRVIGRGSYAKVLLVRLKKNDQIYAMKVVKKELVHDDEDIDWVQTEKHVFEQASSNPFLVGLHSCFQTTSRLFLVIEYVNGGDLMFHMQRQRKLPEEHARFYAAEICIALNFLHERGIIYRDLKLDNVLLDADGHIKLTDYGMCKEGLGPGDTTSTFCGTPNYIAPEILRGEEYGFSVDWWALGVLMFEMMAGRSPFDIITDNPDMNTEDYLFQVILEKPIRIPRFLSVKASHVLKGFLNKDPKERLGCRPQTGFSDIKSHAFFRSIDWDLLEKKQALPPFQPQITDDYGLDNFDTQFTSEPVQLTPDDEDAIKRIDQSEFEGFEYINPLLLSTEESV
Sequence of Adenosine, A2A (h) (P29274 whole entry): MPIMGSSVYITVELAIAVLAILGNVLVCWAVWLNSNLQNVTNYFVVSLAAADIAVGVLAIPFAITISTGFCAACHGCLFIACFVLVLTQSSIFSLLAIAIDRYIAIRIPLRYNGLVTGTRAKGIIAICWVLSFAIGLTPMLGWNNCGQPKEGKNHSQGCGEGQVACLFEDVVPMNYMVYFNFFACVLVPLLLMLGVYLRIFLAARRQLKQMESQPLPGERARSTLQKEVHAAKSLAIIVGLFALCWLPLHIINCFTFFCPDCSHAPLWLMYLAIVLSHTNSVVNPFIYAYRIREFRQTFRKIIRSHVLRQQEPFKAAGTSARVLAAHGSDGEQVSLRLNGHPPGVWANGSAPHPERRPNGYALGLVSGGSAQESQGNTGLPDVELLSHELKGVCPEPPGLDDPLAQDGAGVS
Sequence of Protease, caspase, CASP-2 (h) (P42575 170-325 limits assumed): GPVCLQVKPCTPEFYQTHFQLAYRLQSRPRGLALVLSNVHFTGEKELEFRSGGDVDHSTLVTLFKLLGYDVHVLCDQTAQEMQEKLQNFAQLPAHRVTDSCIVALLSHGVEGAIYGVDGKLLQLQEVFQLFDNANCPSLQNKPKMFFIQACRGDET
Sequence of Protease, caspase, CASP-2 (h) (P42575 348-452 limits assumed): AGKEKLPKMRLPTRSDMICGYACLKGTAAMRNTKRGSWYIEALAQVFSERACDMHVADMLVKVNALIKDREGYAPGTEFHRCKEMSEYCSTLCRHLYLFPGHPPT

## NC(=O)N1c2ccccc2C[C@H](O)c2ccccc21 [eslicarbazepine]
Melatonin, nonselective
  % inhibition: 17.43%
[1]
  % inhibition: 38.95%
Serotonin, 5HT7 (h)
  inhibition at 400 µM: 0%
Calcium channel, type N
  % inhibition: 23.34%
[2]
  % inhibition: 0.45%
[3]; [16]
  Brain (whole volume) Eslicarbazepine: 37.5 nmol/g
  Plasma eslicarbazepine: 236.2 µmol/L
[3]; [17]
  Brain (whole volume) Eslicarbazepine: 58.7 nmol/g
  Plasma eslicarbazepine: 282.8 µmol/L
[3]; [18]
  Brain (whole volume) Eslicarbazepine: 67.7 nmol/g
  Plasma eslicarbazepine: 168.1 µmol/L
[3]; [19]
  Brain (whole volume) Eslicarbazepine: 22 nmol/g and 22.0 nmol/g
  Plasma eslicarbazepine: 32 µmol/L and 31.5 µmol/L
[4]
  IC50, KV7.2 outward currents: no inhibitory effect
[5]; 50 μmol/L
  GABA inward current stimulation, α5β2γ2, Mean ± SEM: 95.2 ± 2.2
[5]; 100 μmol/L
  GABA inward current stimulation, α5β2γ2, Mean ± SEM: 93.9 ± 0.6
[5]; 250 μmol/L
  GABA inward current stimulation, α5β2γ2, Mean ± SEM: 93.5 ± 1.8
[5]; 500 μmol/L
  GABA inward current stimulation, α5β2γ2, Mean ± SEM: 89.7 ± 3.4
[5]; 50–500 μmol/L
  effect on submaximal α5β2γ2 GABA currents: did not significantly change submaximal GABA currents
Transient Na+ channels
  neuronal firing in dissociated granule cells from human hippocampus: significantly inhibited neuronal firing
Serotonin, 5HT3
  % inhibition: 10.41%
Opioid, kappa 1
  % inhibition: 5.39%
Glutamate, mGluR5
  % inhibition: 14.42%
Purinergic, P2Y
  % inhibition: 0.0%
Oxygenase, COX-2
  % inhibition: 0.0%
Serotonin, 5HT1A (h)
  inhibition at 400 µM: 0.4%
Sigma 1
  % inhibition: 28.43%
[6]; mean ± SEM, n = 3–6
  Fast inactivation V0.5: −40.68 ± 3.10 mV
  Slow inactivation V0.5: −26.61 ± 2.74 mV
[6]; control 20.29 sec
  time constant for entering the slow inactivated state: 14.02 s
Muscarinic, M1 (h)
  inhibition at 400 µM: 0%
GABA A, agonist site
  % inhibition: 0.0%
Serotonin, 5HT6 (h)
  inhibition at 400 µM: 5.86%
Neuropeptide, NPY2 (h)
  inhibition at 400 µM: 8.43%
[7]
  inhibition at 400 µM: 0%
Adenosine, A2A (h)
  inhibition at 400 µM: 6.81%
Oxidase, MAO-A, central
  % inhibition: 15.98%
[8]
  inhibition at 400 µM: 1.48%
[9]
  inhibition at 400 µM: 0%
[10]
  inhibition at 400 µM: 4.32%
[11]
  % inhibition: 26.95%
Sodium, site 2
  % inhibition: 34.46%
Histamine, H3
  % inhibition: 0.0%
Dopamine, D4.2 (h)
  inhibition at 400 µM: 0%
Dopamine, D4.4 (h)
  inhibition at 400 µM: 0%
[12]
  % inhibition: 9.36%
[13]
  % inhibition: 0.0%
Serotonin, 5HT1D (h)
  inhibition at 400 µM: 16.4%
[14]
  binding to nonspecific proteins (protein binding): ~30%
[15]; Scn1b null mice
  INaP in Scn1b null mice: did not cause a paradoxical upregulation of INaP
[15]; wild-type mice
  maximal INaP conductance and firing rate: significantly reduce maximal INaP conductance and efficiently decrease the firing rate
Serotonin, 5HT5A (h)
  inhibition at 400 µM: 11.9%

Reference: publication PMC4448990 (Pharmacology Research & Perspectives, 2015)
